Measured values from paper PMC9851200, “Multiparameter phenotypic screening for endogenous TFEB and TFE3 translocation identifies novel chemical series modulating lysosome function” (Autophagy, 2022).

Assays:
Type in all cases: binding
[1] = target: kinases (KINOMEscan panel) (Homo sapiens, UniProt P19784); settings: CSNK2A2; NEW KINOMEscan
[2] = target: kinases (KINOMEscan panel) (Homo sapiens, UniProt O96013); settings: PAK4; NEW KINOMEscan
[3] = target: T1, kinases (KINOMEscan panel) (Homo sapiens, UniProt Q96L34); settings: kinase MARK4; NEW KINOMEscan
T1 sequence (Q96L34 1-752): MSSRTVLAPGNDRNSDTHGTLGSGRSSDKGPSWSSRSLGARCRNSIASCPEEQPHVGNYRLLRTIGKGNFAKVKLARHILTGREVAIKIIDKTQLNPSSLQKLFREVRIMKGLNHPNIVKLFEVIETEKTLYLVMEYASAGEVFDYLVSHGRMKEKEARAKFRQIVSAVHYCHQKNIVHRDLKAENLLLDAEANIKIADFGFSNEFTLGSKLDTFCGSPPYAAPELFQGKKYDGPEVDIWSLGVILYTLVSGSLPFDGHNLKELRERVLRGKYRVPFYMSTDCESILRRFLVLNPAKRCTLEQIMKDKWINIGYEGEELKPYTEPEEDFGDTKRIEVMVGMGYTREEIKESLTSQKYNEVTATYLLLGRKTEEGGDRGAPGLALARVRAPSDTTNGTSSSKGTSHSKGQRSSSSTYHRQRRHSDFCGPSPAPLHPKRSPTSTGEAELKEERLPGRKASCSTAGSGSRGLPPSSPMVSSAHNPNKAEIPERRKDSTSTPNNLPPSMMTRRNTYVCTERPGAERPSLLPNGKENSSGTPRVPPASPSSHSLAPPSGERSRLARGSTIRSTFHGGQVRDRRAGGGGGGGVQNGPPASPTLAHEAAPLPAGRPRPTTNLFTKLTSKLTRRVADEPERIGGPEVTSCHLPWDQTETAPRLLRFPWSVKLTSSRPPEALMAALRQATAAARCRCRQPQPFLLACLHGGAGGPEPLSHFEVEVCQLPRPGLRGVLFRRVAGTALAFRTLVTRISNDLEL

[4] = target: kinases (KINOMEscan panel) (Homo sapiens, UniProt P31749); settings: kinase AKT1; NEW KINOMEscan
[5] = target: kinases (KINOMEscan panel) (Homo sapiens, UniProt P49840); settings: GSK3A; NEW KINOMEscan
[6] = target: kinases (KINOMEscan panel) (Homo sapiens, UniProt P15056, V600E); settings: kinase BRAF(V600E); NEW KINOMEscan
[7] = target: kinases (KINOMEscan panel) (Homo sapiens, UniProt P16591); settings: FER; NEW KINOMEscan
[8] = target: kinases (KINOMEscan panel) (Homo sapiens, UniProt Q9UQM7); settings: kinase CAMK2A; NEW KINOMEscan
[9] = target: T2, kinases (KINOMEscan panel) (Homo sapiens, UniProt P42680); settings: kinase TEC; NEW KINOMEscan
T2 sequence (P42680 1-631): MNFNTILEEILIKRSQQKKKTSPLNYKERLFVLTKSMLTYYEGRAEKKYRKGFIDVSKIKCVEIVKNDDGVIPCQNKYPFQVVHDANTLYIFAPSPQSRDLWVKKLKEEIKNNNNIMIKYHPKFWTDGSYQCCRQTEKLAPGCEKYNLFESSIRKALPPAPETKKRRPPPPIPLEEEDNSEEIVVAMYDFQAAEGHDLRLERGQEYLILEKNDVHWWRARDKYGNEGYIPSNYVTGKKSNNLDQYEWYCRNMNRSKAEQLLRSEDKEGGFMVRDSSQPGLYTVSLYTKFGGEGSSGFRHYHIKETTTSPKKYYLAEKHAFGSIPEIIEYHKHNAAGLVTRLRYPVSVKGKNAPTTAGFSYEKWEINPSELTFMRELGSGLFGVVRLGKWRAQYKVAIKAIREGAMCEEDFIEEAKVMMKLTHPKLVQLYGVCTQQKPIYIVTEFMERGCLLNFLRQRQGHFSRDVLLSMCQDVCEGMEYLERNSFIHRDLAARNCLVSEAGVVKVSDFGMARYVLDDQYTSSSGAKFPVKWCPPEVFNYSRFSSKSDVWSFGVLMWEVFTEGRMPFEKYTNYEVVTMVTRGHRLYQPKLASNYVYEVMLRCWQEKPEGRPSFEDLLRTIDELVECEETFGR

[10] = target: kinases (KINOMEscan panel) (Homo sapiens, UniProt P78368); settings: kinase CSNK1G2; NEW KINOMEscan
[11] = target: kinases (KINOMEscan panel) (Homo sapiens, UniProt Q13523); settings: PRPF4B; NEW KINOMEscan
[12] = target: kinases (KINOMEscan panel) (Homo sapiens, UniProt P00519, F317L); settings: NEW KINOMEscan; for KINOMEscan ABL1(F317L)-phosphorylated: kinase ABL1(F317L)-phosphorylated
[13] = target: kinases (KINOMEscan panel) (Homo sapiens, UniProt O00750); settings: PIK3C2B; NEW KINOMEscan
[14] = target: kinases (KINOMEscan panel) (Homo sapiens, UniProt Q5VT25)
Chain of kinases (KINOMEscan panel) (Homo sapiens, UniProt Q5VT25) (Q5VT25 whole entry): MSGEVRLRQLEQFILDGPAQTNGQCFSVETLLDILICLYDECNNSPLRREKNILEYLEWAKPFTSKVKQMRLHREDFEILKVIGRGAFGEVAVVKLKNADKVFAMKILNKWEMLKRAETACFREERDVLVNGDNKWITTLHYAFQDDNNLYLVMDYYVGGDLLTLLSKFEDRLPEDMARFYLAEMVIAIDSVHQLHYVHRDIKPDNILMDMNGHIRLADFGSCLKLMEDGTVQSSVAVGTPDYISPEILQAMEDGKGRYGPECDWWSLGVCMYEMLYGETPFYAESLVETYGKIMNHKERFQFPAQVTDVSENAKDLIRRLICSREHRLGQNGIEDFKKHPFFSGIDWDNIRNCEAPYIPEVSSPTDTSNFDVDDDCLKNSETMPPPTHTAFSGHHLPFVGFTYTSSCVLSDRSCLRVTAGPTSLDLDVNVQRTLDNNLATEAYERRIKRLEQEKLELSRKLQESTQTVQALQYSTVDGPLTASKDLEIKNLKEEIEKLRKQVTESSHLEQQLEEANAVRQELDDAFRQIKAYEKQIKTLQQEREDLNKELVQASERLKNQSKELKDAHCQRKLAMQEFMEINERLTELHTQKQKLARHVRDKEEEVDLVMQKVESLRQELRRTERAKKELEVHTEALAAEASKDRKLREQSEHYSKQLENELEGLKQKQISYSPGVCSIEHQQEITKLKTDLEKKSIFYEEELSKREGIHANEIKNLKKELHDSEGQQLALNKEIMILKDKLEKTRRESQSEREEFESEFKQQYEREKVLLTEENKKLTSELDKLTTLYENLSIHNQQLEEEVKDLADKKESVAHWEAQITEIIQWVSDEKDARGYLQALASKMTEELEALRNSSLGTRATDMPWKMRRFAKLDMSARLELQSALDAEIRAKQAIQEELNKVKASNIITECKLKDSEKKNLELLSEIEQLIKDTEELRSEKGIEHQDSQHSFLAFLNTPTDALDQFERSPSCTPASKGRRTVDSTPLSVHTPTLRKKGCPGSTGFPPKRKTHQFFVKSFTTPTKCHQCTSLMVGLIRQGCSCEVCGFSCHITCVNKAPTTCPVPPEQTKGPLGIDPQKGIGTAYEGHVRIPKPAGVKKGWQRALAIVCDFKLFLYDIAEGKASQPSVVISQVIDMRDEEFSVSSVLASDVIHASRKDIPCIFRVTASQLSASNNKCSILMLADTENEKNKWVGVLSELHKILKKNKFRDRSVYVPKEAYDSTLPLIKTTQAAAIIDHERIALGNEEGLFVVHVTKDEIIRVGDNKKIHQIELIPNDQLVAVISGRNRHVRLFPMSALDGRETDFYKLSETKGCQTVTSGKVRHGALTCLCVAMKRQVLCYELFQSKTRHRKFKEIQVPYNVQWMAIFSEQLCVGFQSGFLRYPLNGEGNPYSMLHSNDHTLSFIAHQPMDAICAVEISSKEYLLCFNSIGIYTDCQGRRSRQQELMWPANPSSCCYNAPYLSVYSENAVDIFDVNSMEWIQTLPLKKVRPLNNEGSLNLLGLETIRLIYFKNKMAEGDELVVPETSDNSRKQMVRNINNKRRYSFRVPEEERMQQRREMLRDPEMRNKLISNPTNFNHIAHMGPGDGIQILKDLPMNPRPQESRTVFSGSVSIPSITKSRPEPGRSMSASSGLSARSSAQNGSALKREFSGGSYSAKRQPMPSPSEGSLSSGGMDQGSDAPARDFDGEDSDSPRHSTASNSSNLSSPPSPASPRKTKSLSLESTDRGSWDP

Chain of kinases (KINOMEscan panel) (Homo sapiens, UniProt P00519, F317L) (P00519 whole entry F317L): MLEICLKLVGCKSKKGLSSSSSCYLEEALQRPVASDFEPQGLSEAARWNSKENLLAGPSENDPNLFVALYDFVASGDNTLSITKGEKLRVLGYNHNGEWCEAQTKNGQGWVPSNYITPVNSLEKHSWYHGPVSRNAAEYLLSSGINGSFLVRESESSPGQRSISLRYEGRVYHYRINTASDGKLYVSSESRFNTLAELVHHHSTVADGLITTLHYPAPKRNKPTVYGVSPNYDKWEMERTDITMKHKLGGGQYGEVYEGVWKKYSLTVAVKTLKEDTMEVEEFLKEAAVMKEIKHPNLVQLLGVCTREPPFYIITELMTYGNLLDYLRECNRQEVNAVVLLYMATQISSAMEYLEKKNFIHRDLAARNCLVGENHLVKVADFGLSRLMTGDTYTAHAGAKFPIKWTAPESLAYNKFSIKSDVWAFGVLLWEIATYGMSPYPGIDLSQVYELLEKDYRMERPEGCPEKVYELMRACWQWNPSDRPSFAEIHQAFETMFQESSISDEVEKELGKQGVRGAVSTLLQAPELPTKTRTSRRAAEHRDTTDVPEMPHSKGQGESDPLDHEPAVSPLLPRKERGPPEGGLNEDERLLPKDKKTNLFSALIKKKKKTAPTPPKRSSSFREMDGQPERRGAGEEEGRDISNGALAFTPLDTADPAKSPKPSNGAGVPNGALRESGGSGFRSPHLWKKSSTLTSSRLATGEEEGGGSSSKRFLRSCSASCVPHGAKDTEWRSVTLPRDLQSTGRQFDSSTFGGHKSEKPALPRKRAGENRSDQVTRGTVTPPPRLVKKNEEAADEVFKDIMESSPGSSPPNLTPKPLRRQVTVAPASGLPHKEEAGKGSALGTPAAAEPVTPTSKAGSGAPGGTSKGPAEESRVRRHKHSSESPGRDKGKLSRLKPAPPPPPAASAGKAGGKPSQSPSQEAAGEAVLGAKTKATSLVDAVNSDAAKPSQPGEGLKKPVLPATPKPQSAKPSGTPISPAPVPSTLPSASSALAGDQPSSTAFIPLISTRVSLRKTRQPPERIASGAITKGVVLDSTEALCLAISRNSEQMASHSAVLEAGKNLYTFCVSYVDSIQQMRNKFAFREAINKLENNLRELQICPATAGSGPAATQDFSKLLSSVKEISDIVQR
Chain of kinases (KINOMEscan panel) (Homo sapiens, UniProt P15056, V600E) (P15056 whole entry V600E): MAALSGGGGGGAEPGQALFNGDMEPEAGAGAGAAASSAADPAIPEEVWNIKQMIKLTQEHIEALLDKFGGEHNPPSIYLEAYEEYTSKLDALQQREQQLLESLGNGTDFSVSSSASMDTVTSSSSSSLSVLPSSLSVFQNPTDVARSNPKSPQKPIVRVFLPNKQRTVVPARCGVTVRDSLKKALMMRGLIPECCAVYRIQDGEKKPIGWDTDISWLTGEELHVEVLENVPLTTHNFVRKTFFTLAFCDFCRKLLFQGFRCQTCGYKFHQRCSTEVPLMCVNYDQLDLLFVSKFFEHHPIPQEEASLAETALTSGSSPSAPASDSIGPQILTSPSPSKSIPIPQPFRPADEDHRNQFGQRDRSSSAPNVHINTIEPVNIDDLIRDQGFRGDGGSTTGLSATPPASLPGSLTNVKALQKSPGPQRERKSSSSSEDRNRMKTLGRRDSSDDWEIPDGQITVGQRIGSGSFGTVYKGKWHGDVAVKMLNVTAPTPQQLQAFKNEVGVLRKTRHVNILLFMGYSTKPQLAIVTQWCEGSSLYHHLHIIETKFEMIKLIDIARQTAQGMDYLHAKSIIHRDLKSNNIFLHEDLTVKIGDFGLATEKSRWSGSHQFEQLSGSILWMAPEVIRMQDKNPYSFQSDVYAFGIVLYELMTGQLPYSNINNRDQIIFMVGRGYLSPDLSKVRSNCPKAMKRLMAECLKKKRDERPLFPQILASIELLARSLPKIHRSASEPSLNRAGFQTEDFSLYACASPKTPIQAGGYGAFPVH
Chain of kinases (KINOMEscan panel) (Homo sapiens, UniProt O96013) (O96013 whole entry): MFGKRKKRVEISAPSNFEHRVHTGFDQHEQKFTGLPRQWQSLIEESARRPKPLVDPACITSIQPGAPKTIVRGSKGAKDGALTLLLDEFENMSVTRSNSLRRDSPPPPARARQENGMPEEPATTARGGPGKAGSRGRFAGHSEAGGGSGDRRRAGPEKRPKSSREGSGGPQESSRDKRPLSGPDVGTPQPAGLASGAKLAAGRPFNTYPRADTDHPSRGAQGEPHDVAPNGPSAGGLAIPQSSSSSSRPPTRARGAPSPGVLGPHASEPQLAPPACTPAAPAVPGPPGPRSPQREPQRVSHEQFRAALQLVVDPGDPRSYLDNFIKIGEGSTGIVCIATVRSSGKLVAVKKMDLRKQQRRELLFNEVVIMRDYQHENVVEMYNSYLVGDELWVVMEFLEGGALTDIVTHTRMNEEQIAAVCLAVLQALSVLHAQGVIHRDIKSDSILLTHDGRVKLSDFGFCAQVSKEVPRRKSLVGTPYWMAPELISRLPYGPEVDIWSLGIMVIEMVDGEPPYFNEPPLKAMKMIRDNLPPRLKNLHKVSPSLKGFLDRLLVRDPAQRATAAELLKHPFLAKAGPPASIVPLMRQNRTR
Chain of kinases (KINOMEscan panel) (Homo sapiens, UniProt P49840) (P49840 whole entry): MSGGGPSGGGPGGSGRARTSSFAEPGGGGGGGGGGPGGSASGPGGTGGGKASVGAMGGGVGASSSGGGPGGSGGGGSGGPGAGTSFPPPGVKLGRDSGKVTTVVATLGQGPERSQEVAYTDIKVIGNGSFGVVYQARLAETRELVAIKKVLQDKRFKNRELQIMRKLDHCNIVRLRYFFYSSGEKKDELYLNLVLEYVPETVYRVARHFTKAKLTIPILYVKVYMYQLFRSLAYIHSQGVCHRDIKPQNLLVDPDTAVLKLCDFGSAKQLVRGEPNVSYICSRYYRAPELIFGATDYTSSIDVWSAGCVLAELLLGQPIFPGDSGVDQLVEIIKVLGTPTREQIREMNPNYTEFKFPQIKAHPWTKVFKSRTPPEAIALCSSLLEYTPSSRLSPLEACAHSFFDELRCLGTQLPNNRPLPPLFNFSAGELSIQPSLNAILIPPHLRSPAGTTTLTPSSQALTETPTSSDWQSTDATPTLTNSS
Chain of kinases (KINOMEscan panel) (Homo sapiens, UniProt P19784) (P19784 whole entry): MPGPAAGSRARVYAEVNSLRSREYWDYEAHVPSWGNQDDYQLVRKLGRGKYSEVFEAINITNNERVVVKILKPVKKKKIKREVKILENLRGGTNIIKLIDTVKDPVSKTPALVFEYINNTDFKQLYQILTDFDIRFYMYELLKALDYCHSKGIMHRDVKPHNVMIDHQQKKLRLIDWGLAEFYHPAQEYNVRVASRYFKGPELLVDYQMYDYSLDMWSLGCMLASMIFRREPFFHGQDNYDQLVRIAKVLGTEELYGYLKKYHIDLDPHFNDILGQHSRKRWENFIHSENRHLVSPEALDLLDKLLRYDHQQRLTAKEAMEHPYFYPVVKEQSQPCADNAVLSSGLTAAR

Compound | KINOMEscan CSNK2A2 [1] | KINOMEscan PAK4 [2] | KINOMEscan MARK4 [3] | KINOMEscan AKT1 [4] | KINOMEscan GSK3A [5] | KINOMEscan BRAF(V600E) [6] | KINOMEscan FER [7] | KINOMEscan CAMK2A [8] | KINOMEscan TEC [9] | KINOMEscan CSNK1G2 [10] | KINOMEscan PRPF4B [11] | KINOMEscan ABL1(F317L)-nonphosphorylated [12] | KINOMEscan ABL1(F317L)-phosphorylated [12] | KINOMEscan PIK3C2B [13] | KINOMEscan CDC42BPA/MRCKA [14]
Cc1cccc(-c2nc(Nc3ccc4nn(C)cc4c3)c3ccccc3n2)n1 [NK167] | 0 | 0 | 34 | 10 | 0 | 0 | 0 | 0 | 0 | 12 | 0 | 30 | 0 | 0 | 0
Cc1cccc(-c2nc(N(C)c3ccc4ncsc4c3)c3ccccc3n2)n1 [NK-161] | 5 | 0 | 16 | 17 | 0 | 0 | 0 | 0 | 0 | 25 | 0 | 18 | 0 | 0 | 5
